We go through three molecules from paper PMC13223490, “New Indazole Derivatives as Potential Scaffolds for the Development of Anticancer, Antiviral, and Anti-tuberculosis Chemotherapeutic Compounds” (Current Medicinal Chemistry, 2025).

Where “and” joins values, the source holds several entries; their conditions need not be identical. Equal entries are not always repeated. Where two headings read alike, the source gives them in different places.

Series [1] has as its system SARS-CoV-2. In words: microbe, parasite or virus in culture. It is filed as cell-based. The following applies: for IC50: Vero E6.
Series [2] deals with influenza virus A/California/7/2009 (H1N1)pdm09. As to the kind of experiment: microbe, parasite or virus in culture. It is filed as cell-based, human influenza virus A.
Series [3] concerns HL60 leukemia cells. As to the kind of experiment: Cytotoxicity on tumor cell cultures (resazurin, 48 h). The following applies: HL60, 48 h. Format: cell-based. How it is done:
(§1) The total well volume was 150 μl.
Background: The colour change of resazurin is a common sign of viable cells or microbes.

Series [4] concerns SH-SY5Y neuroblastoma cells. The series is described as above. It is filed as cell-based. On the procedure: as §1
For series [5], the system named is K562 leukemia cells. The description is as above. It is filed as cell-based. The following applies: K562, 48 h. How it is done:
as §1

Series [6] concerns GBM5522 low-passage primary glioblastoma multiforme cells. The series is described as above.
Method: The low-passage primary glioblastoma multiforme cell culture GBM5522 was previously described [37]. Cells were cultured in DMEM (Servicebio) containing 10% fetal bovine serum (FBS) at 37°C in an atmosphere of 5% CO2. The cells were plated in 96-well plates at a density of 1x10^4 cells/well. The test substances were then added in concentrations ranging from 0.8 to 100 μM. DMSO at a concentration of 1% was used as a control, corresponding to the percentage of DMSO when the highest concentration of the drug was added. The total well volume was 150 μl. The cells were incubated for 48 hours at 37°C in a 5% CO2 atmosphere. Resazurin was added in a concentration of 10 μl of a 0.5 mg/mL solution in phosphate-buffered saline. The incubation was carried out under the same conditions for 4 hours, and then the fluorescence level was measured at an excitation wavelength of 560 nm and an emission wavelength of 590 nm using a CLARIOstar multimodal microplate reader (BMG Labtech, Germany). The data obtained for each concentration were normalized to the control, and the IC50 was calculated using the nonlinear regression method. The minimum number of repetitions for each concentration was three. The GraphPad Prism software v.9.5.1 (GraphPad Software, San Diego, USA) was used to calculate the IC50 and plot the percentage of living cells versus the concentration of the drug.
In series [7] the test system is SH-SY5Y, K-562, HL-60, GBM5522 cells. As to the kind of experiment: Cytotoxicity screening, summary over the cancer cell panel. Format: cell-based. How it is done:
as §1
Cytotoxicity screening of the synthesized indazole derivatives was performed on the cell line of neuroblastoma SH-SY5Y, lymphoblastic cells K-562, promyeloblastic cells HL-60, low-passage variant of highly differentiated multiform glioblastoma GBM5522 (Table 2).

In series [8] the test system is M. tuberculosis H37Rv. In words: Bacteriostatic activity, proportion method, BACTEC MGIT 960, Middlebrook 7H9. Conditions: for MIC50: 50% inhibition of mycobacterial growth. It is filed as cell-based, Mycobacterium tuberculosis.
Series [9] deals with MDCK cells. As to the kind of experiment: Cytotoxic effect in MDCK cell culture (MTS). The following applies: MDCK; concentration reducing the cell number by 50%. It is filed as cell-based. How it is done: (§2) Multiple dilutions of solutions of all compounds were prepared in 24-well plates by titration into 8 wells, starting from a dilution of 1:10 to 1:1280. The resulting serial dilutions were transferred to the wells of the test plates with cells. Each point was tested in 4 parallel wells. The working medium was added to the wells of the cell control. […] Then, the culture medium was removed from the plates, and 100 μL of the medium and 20 μL of the MTS solution were added to the cell culture monolayer in each well. After incubation for 3 hours at 37°C, the results were recorded on a BIO-RAD automatic reader at a wavelength of 490 nm. Reference filter - 630 nm.
(§3) To obtain statistically reliable results, the experiments were performed 2-3 times. The values of CC50 and IC50 were calculated using generally accepted methods for biological research, as implemented in the Microsoft Excel 5.0 and GraphPad Prism 6.01 software packages. The working model for CC50 analysis was a 4-parameter logistic curve equation (menu items “Nonlinear regression” - “Sigmoidal dose-response (variable slope)”). For IC50 analysis, a 4-parameter logistic curve equation was adopted (menu items “Nonlinear regression” - “log (inhibitor) vs. response (variable slope)”). Based on the obtained data, the selectivity index (SI) was calculated using the equation: SI = CC50/ IC50.

Series [10] can be described thus: in vivo. Format: in vivo, mice. Conditions: both sexes, white outbred, mouse, in vivo, po; mice, single intragastric administration, day 14. The text has this:
(§4) The toxicity of the compound was studied according to published procedure in compliance with the guidelines.
(§5) In this regard, one representative of the group, lead compound 8, was studied for acute toxicity in […] mice. White outbred mice of both sexes, weighing 25-30 g and aged 12-13 weeks, were used as biomodels. The animals were obtained from the nursery of the Federal State Unitary Enterprise «Research Institute for Hygiene, Toxicology and Occupational Pathology» of the Federal Medical and Biological Agency of Russia. The total number of animals was 20 heads. The experimental and control groups consisted of 4 animals with an equal number of males and females.
(§6) The toxic effect of the specified substance was studied using the described procedure. The substance was administered intragastrically using an atraumatic metal probe at a rate of 0.05 mL per 10 g of body weight in a dose range from 20 mg/kg to 80 mg/kg. Control animals received the solvent (99% DMSO) in the same volume in a similar way.
(§7) After the substance was administered, the animals were continuously observed for 4 hours, then periodically for 14 days, recording clinical manifestations of intoxication and the fact of death, after which lethal doses were calculated.
(§8) Dead animals were autopsied as soon as possible after death, macroscopic manifestations of the effect of the test compound were noted, and internal organs were collected for subsequent histological examination as described earlier.
(§9) Lethal doses were calculated using the probit analysis method, as described by D.J. Finney, in Microsoft Excel 2013 on the 14th day of the experiment.

Series [11] deals with white outbred mice. In words: in vivo. Format: in vivo.
Text: as §4, §5, §6, §7, §8, §9

Series [12] in a line: Cytotoxic effect in MDCK cell culture (MTS). Format: cell-based. Conditions: dog. How it is done:
as §2, §3

Series [13] deals with continuous leukemia cell lines. More on the design: method as in PMID 28587395, PMID 11531262. The following applies: read-out: half-maximal effective concentrations; cited from earlier work.
The subject of series [14] is mouse. The following applies: mouse model studies; cited from earlier work.
Setting [15] is: 75% inhibition of mycobacterial growth.
Where [16] appears, read: mice, single intragastric administration, day 14.

As a reminder, the IC50 is the concentration at which inhibition is half-maximal. One may read the MIC as the lowest concentration found to suppress growth. A lower MIC goes with greater potency. Broadly, the CC50 is the concentration that lowers cell viability or growth by half. Low readings indicate greater toxicity to the cells, high ones lower toxicity to the cells. For “6-(cyclopenten-1-en-1-yl)-1H-indazole [Compound 12]”, the Δlgmax in series [1] turned out to be 0.5; in [2], 0.25. The IC50 in series [1] is greater than 3 µM; in [2] (read-out: IC50), greater than 2 µM; in series [3], greater than 100 µM; in [4], greater than 100 µM; in series [5], 22.3 ± 4.3 µM; in series [6] (GBM5522, 48 h) it was greater than 100 µM. For the same molecule, the cytotoxicity in words result in series [7] (cancer cell lines panel) was “inactive”. The entries for the “MIC50” value in series [8] and in [8] (read-out: MIC 50) were 40 µg/mL and 217 µM, respectively. This molecule showed an MIC in [8] (setting [15]) of 217 µM. Besides, in series [8] (setting [15]), the “MIC 75” value came out at 40 µg/mL. Besides, the “effect on growth of M. tuberculosis H37Rv culture, in words” value in series [8] (up to the maximum tested concentration) is “best antibacterial activity”. In addition, in [9], the CC50 came to 4 µM.

What is called LD50 is the dose at which mortality reaches 50%. Higher therefore signals lower toxicity. `c1cc2cn[nH]c2cc1-c1cn[nH]c1` [Compound 8, 6-(1H-pyrazol-4-yl)-1H-indazole]: the Δlgmax in [1] was found to be 0.75; in series [2], 2.0. Also, the IC50 in series [1] (Severe acute respiratory syndrome coronavirus 2, Vero C1008) was greater than 6 µM; in series [2] (H1N1, MDCK) it was 6 µM; in series [3] (Homo sapiens, HL-60), 9.9 ± 0.8 µM; in series [4] (Homo sapiens), 4.2 ± 0.9 µM; in [5] (Homo sapiens) it was 6.7 ± 0.8 µM; in series [6] (48 h) it was 13.8 ± 1.1 µM. In [7] (SH-SY5Y, K-562, HL-60, GBM5522, read-out: IC50 range over cancer cell lines), the IC50 lay within 4 to 14 µM. Besides, the “maximum reduction of the infectious titer” value in series [2] (MDCK cell culture) worked out at 2.0 logTCID50. Besides, in series [2] (ratio of CD50 (CC50) to IC50, MDCK), the “SI (selectivity index)” value was 55. The cytotoxicity in words entry in series [7] is listed as “significant cytotoxicity”. For the same molecule, the LD50 in series [10] is 40 mg/kg. The “Number of Animals in the Group/Number of Dead” value in series [11] (20 mg/kg intragastric) was 4/0; in series [11] (40 mg/kg intragastric) it was 4/2; in series [11] (50 mg/kg intragastric), 4/3; in series [11] (80 mg/kg intragastric), 4/4. The necropsy findings result in [11] (80 mg/kg and 50 mg/kg, dead animals) was “uncoagulated blood was found in the heart, pulmonary hyperemia was present, and blood was observed in the chest”. Besides, the pathomorphological examination result in series [11] (80 mg/kg, male mouse) is “focal hemorrhages in the gastric mucosa and pronounced swelling and edema of the submucosal layer”. In addition, in [11] (lethal doses, first day after administration), the “clinical picture of intoxication” value is recorded as “convulsions, dysfunction of the hind limbs, increasing hypodynamia”. Moreover, in [11] (setting [16]), the LD10 is recorded as 26,2 mg/kg. Also, in series [11] (setting [16]), the LD16 was 28,8 mg/kg. The LD84 in series [11] (setting [16]) is on record as 55,6 mg/kg. For the same molecule, the MIC in series [8] (Mycobacterium tuberculosis, H37RV, 75% inhibition of mycobacterial growth) is 60 µg/mL and 326 µM. For the same molecule, the MIC50 in series [8] (Mycobacterium tuberculosis, H37RV, read-out: MIC 50) is 40 µg/mL and 217 µM. Further, half-maximal cytotoxicity in [12] (CC50 at 66 h) was put at 330 µM.

With `COc1cc([C@@H]2c3cc4c(cc3[C@@H](O[C@@H]3O[C@@H]5CO[C@@H](C)O[C@H]5[C@H](O)[C@H]3O)[C@H]3COC(=O)[C@H]23)OCO4)cc(OC)c1O` [etoposide], the EC50 in series [13] was 10 to 100 µM. In addition, in series [14], the nonlethal doses was ~ 50 mg/kg.
